Data reported in patent US6153589A, “2,3-epoxy alcohols, acids and derivatives as anti retroviral chemotherapeutic agents” (The United States of America as represented by the …, priority 1992, dated 2000).
Where two headings read alike, the source gives them in different places.

Assays:
HIV1 IIIb = experiment: microbe, parasite or virus in culture; assay type: cell-based; details: Human immunodeficiency virus 1, IIIB; for viability at 10 µg/mL: 10 ug/ml; for viability at 0.1 µg/mL: 0.1 ug/ml; for viability at 56.7 µg/mL: 56.7 ug/ml; for viability at 48.4 µg/mL: 48.4 ug/ml; for viability at 2.4 µg/mL: 2.4 ug/ml
Text: In-vitro Screening Anti--HIV XTT Assay
This assay, which is available to the public by the National Cancer Institute, utilizes colorimetry based on the production of a colored formazin from a tetrazolium salt by viable cells, to develop a safe, rapid and quantitative measure of HIV cytopathology. The assay is a modification of the previously described screening method for the detection of anti-tumor drug cytotoxicity (D. A. Scudiero, et al, Cancer Res, 48, 4827-4833 (1988)). It involves the plating of susceptible human "host" cells with and without virus in microculture plates, adding various concentrations of the respective test compounds, incubating the plates for seven days, during which time infected, non-drug treated control cells are largely or totally destroyed by the virus. The number of remaining viable cells are determined utilizing a calorimetric endpoint. A beneficial antiviral effect is indicated by a response % grater than the virus kill %, with 100% being optimal.
Anti-viral effect: Response (Viable Cells, determined by colorometric
absorbance of formazan dye produced) as % of uninfected controls
Virus Source: HIV1 IIIb; C, Virus producing H9 cells; V, cell free virus
Virus Kill: Infected untreated cells as % of uninfected cell controls
*: Culture redosed with compound after 3 days

HIV-2 protease = experiment: HIV protease cleavage of nonapeptide (HPLC); assay type: biochemical; details: 0.5 μl of 10 μg/μl inhibitor in DMSO per 10 μl reaction; pH 6.5, room temperature; pentapeptide product relative to DMSO control; sampled at ca. 16 and 40 hr (time not given)
Procedure: Activity Against HIV Protease
The assay for proteolyic activity is a modified version of that previously described by Copeland et al., Gene Anal. Tech., 5:109-115 (1988). For each assay to be performed 2 microliters of protease solution (ca. 100 ng) is added to 3 μg of nonapeptide (Val-Ser-Gln-Asn-Tyr-Pro-Ile-Val-Gln-NH2) in 8 μl of 200 mM sodium phosphate, 1 M NaCl, 5% glycerol, 0.25% Nonidet-40, at pH 6.5. This affords a stock solution containing 10 μl per number of reactions. This stock is aliquoted out in 10 μl portions to which 0.5 μl of DMSO (a control is run with each set of assays to compensate for minor experimental variations) or a DMSO solution containing 10 μg/μl of an inhibitor, i.e., any one of the compounds of the present invention, is added. The reactions were incubated at room temperature and 4 μl portions were removed at ca. 16 and 40 hr. intervals. HPLC analysis was performed on a 4.6×250 mm Lichrosorb RP-18 column eluted with a gradient of 0-40% acetonitrile in water (containing 0.05% TFA) over 30 min monitoring absorbance at 206 nm. Progress of the enzymatic cleavage was followed by monitoring the appearance of the pentapeptide (Val-Ser-Gln-Asn-Tyr-OH) cleavage product. The activity is expressed as the amount of the pentapeptide (Val-Ser-Gln-Asn-Tyr-OH) observed relative to the control reaction for that set of assays.
Inhibition of HIV-2 protease

porcine Renin = biological target: T1, porcine Renin (Sus scrofa, UniProt A0A287APG1); experiment: Porcine Renin cleavage of porcine tetradecapeptide (HPLC); assay type: biochemical; details: 0.5 μl of 50 μg/μl inhibitor in DMSO in 50 μl; pH 6.00, room temperature, 70 min; relative to uninhibited control
T1 construct: purchased Sigma
Text: Renin Activity: Porcine Renin Cleavage of Porcine Tetradecapeptide
Proteolytic enzymes are ubiquitous in many living systems. Renin is an asparxyl protease found in mammals which is responsible for the regulation of blood pressure. Structural and functional similarities between Renin and retroviral proteases have been previously noted (Pearl, L. H., Taylor, W. R., (1987) Nature, 329, 351-354). Consequently, successful therapeutic inhibition of retroviral proteases depends on the ability of the inhibitor to inhibit the retroviral enzyme while having a greatly diminished effect on normally occurring enzymes like Renin. The failure to inhibit the desired enzyme selectively may have an adverse effect on normal biochemical functions. The similarity of Renin to retroviral proteases and its viral normal bodily function makes it an attractive system in which to examine inhibitory selectivity.
Renin activity was determined by a method similar to that described above for the HIV protease. A solution containing 0.37 m unit (0.5 μl of stock solution containing 0.75 m unit/μl) of porcine Renin (Sigma) was added to 5 μg of porcine angiotensinogen in 50 μl of 0.1 M citrate-phosphate buffer (pH 6.00) containing 0.25% NP-40. A DMSO solution containing the inhibitor (0.5 μl of a 50 μg/μl solution) was added and the reaction was allowed to incubate at room temperature for 70 min. The entire mixture was analyzed by HPLC chromatographic analysis was perforemd on a 4.6×250 mm Lichrosorb RP-18 column eluting with a gradient of 0-50% acetonitrile in 0.02 M KH2 Po4 (pH 4.7) over 30 min monitoring absorbance at 206 nm. Appearance of both the tetrapeptide and the decapeptide products may be monitored under these conditions. Enzyme activity is expressed as the amount of tetrapeptide produced relative to an uninhibited control, and are summarized in Table 3 below.

[1] = 168 h, read-out: Antiviral Effect (viable cells as % of uninfected controls), run 6, source V (cell free virus), virus kill 26.0%

T1 sequence (A0A287APG1 24-407): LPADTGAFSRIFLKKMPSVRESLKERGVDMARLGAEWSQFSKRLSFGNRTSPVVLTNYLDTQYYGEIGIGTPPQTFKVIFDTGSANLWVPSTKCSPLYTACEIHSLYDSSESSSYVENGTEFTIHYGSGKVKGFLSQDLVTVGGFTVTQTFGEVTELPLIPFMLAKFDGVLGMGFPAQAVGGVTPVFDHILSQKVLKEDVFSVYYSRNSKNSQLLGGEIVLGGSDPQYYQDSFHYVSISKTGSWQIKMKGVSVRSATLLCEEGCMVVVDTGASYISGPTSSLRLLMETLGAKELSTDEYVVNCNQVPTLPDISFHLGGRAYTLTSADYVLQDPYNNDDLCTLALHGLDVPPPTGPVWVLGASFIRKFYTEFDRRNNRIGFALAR

Work on `OC[C@H]1O[C@H]1COCc1ccccc1` [Example 14, (2R-cis)-3-(Benzyloxymethyl)oxirane Methanol] yielded a viability at 1 µg/mL (HIV1 IIIb; 168 h, read-out: Antiviral Effect (viable cells as % of uninfected controls), run 6, 1 ug/ml, source V (cell free virus), virus kill 50.0%) of 43.5%, a viability at 10 µg/mL (HIV1 IIIb; 168 h, read-out: Antiviral Effect (viable cells as % of uninfected controls), run 7, source V (cell free virus), virus kill 50.0%) of 49.5% and a viability at 0.1 µg/mL (HIV1 IIIb; 168 h, read-out: Antiviral Effect (viable cells as % of uninfected controls), run 8, source V (cell free virus), virus kill 16.0%) of 17.7%. For the same compound, the viability at 0.1 µg/mL (HIV1 IIIb; 168 h, read-out: Antiviral Effect (viable cells as % of uninfected controls), run 9, source V (cell free virus), virus kill 16.0%) was 20.6%, the viability at 4.1 µg/mL (HIV1 IIIb; 168 h, read-out: Antiviral Effect (viable cells as % of uninfected controls), run 10, 4.1 ug/ml, source V (cell free virus), virus kill 29.0%) was 28.8% and the viability at 0.004 µg/mL (HIV1 IIIb; 168 h, read-out: Antiviral Effect (viable cells as % of uninfected controls), run 11*, 0.004 ug/ml, source V (cell free virus), virus kill 25.0%, culture redosed with compound after 3 days) was 30%. It also gave a viability at 0.1 µg/mL (HIV1 IIIb; H9, 168 h, read-out: Antiviral Effect (viable cells as % of uninfected controls), run 1, source C (virus producing H9 cells), virus kill 18.0%) of 21.9%, a viability at 10 µg/mL (HIV1 IIIb; H9, 168 h, read-out: Antiviral Effect (viable cells as % of uninfected controls), run 2, source C (virus producing H9 cells), virus kill 17.0%) of 53.5% and a viability at 10 µg/mL (HIV1 IIIb; H9, 168 h, read-out: Antiviral Effect (viable cells as % of uninfected controls), run 3, source C (virus producing H9 cells), virus kill 17.0%) of 61%. The viability at 0.1 µg/mL (HIV1 IIIb; H9, 168 h, read-out: Antiviral Effect (viable cells as % of uninfected controls), run 4, source C (virus producing H9 cells), virus kill 10.0%) was 12.1%, the viability at 10 µg/mL (HIV1 IIIb; H9, 168 h, read-out: Antiviral Effect (viable cells as % of uninfected controls), run 5, source C (virus producing H9 cells), virus kill 10.0%) was 10.5% and the “Percent Control Cleavage of Nonapeptide HIV-1 Cleavage Site Fragment” value (shortened to “Percent Control Cleavage”) (HIV-2 protease) was 78%.

In the case of `CCCCCCCOC[C@H]1O[C@H]1CO` [Example 17], the viability at 11.3 µg/mL (HIV1 IIIb; 168 h, read-out: Antiviral Effect (viable cells as % of uninfected controls), run 4, 11.3 ug/ml, source V (cell free virus), virus kill 40.0%) was 57.6%, the viability at 56.7 µg/mL (HIV1 IIIb; 168 h, read-out: Antiviral Effect (viable cells as % of uninfected controls), run 5, source V (cell free virus), virus kill 57.0%) was 102% and the viability at 56.7 µg/mL (HIV1 IIIb; [1]) was 69.2%. The viability at 1.97 µg/mL (HIV1 IIIb; 168 h, read-out: Antiviral Effect (viable cells as % of uninfected controls), run 7*, 1.97 ug/ml, source V (cell free virus), virus kill 28.0%, culture redosed with compound after 3 days) was 15.8%, the viability at 113 µg/mL (HIV1 IIIb; H9, 168 h, read-out: Antiviral Effect (viable cells as % of uninfected controls), run 1, 113 ug/ml, source C (virus producing H9 cells), virus kill 10.0%) was 31.1% and the viability at 56.7 µg/mL (HIV1 IIIb; H9, 168 h, read-out: Antiviral Effect (viable cells as % of uninfected controls), run 2, source C (virus producing H9 cells), virus kill 15.0%) was 53.7%. The viability at 56.7 µg/mL (HIV1 IIIb; H9, 168 h, read-out: Antiviral Effect (viable cells as % of uninfected controls), run 3, source C (virus producing H9 cells), virus kill 15.0%) was 83.1% and the “Percent Control Cleavage” value (HIV-2 protease) was 66%.

`CCCCCCCOC[C@@H]1O[C@@H]1CO` [Example 18, (2R-cis)-3-(Heptyloxymethyl)oxirane Methanol] showed a viability at 9.65 µg/mL (HIV1 IIIb; 168 h, read-out: Antiviral Effect (viable cells as % of uninfected controls), run 4, 9.65 ug/ml, source V (cell free virus), virus kill 40.0%) of 58.8%, a viability at 48.4 µg/mL (HIV1 IIIb; 168 h, read-out: Antiviral Effect (viable cells as % of uninfected controls), run 5, source V (cell free virus), virus kill 63.0%) of 89.8% and a viability at 48.4 µg/mL (HIV1 IIIb; [1]) of 49%. The viability at 2.4 µg/mL (HIV1 IIIb; 168 h, read-out: Antiviral Effect (viable cells as % of uninfected controls), run 7, source V (cell free virus), virus kill 20.0%) was 29.4%, the viability at 2.4 µg/mL (HIV1 IIIb; 168 h, read-out: Antiviral Effect (viable cells as % of uninfected controls), run 8*, source V (cell free virus), virus kill 25.0%, culture redosed with compound after 3 days) was 40.2% and the viability at 96.5 µg/mL (HIV1 IIIb; H9, 168 h, read-out: Antiviral Effect (viable cells as % of uninfected controls), run 1, 96.5 ug/ml, source C (virus producing H9 cells), virus kill 11.0%) was 38.6%. For the same compound, the viability at 48.4 µg/mL (HIV1 IIIb; H9, 168 h, read-out: Antiviral Effect (viable cells as % of uninfected controls), run 2, source C (virus producing H9 cells), virus kill 16.0%) was 30.7%, the viability at 4.84 µg/mL (HIV1 IIIb; H9, 168 h, read-out: Antiviral Effect (viable cells as % of uninfected controls), run 3, 4.84 ug/ml, source C (virus producing H9 cells), virus kill 10.0%) was 17% and the “Percent Control Cleavage” value (HIV-2 protease) was 71%.

For `CCCCCCCCCCC[C@@H]1O[C@H]1C(=O)O` [Example 39, (2R-trans)-3-Undecyloxiranecarboxylic Acid], the “Percent control (tetrapeptide produced)” value (porcine Renin) was 51%.
